In ChEMBL document CHEMBL4118138, “Discovery of novel 2-[(4-hydroxy-6-oxo-2,3-dihydro-1H-pyridine-5-carbonyl)amino]acetic acid derivatives as HIF prolyl hydroxylase inhibitors for treatment of renal anemia” (Bioorg Med Chem Lett, 2018):
The source made the active and inactive calls. The rule behind the calls is not given here.

Assays:
[1] = Effective half life in Sprague-Dawley rat at 1 mg/kg, iv; type: ADME, organism-based; conditions: in vivo, read-out: t1/2eff (converted)
[2] = Drug metabolism in Sprague-Dawley rat hepatocytes assessed as oxidative metabolism at 1 uM after 1 hr by LC-MS/MS method; type: ADME, cell-based, Hepatocyte; conditions: read-out: Drug metabolism
[3] = Protein binding in human serum at 1 ug/ml after 4 hrs by equilibrium dialysis method; type: ADME, cell-free; conditions: read-out: PB (converted)
[4] = Protein binding in Sprague-Dawley rat serum at 1 ug/ml after 4 hrs by equilibrium dialysis method; type: ADME, cell-free; conditions: read-out: PB (converted)
[5] = Half life in patient administered as qd; type: ADME, organism-based; conditions: human, in vivo
Mus musculus [6] = experiment: In vivo inhibition of PHD2 in Balb/c mouse assessed as EPO levels in serum at 40 mg/kg, po after 6 hrs by ELISA; type: functional
[7] = Total clearance in beagle dog at 1 mg/kg, iv by LC-MS/MS method; type: ADME, organism-based, Canis lupus familiaris; conditions: in vivo
[8] = Tmax in Sprague-Dawley rat at 10 mg/kg, po by LC-MS/MS method; type: ADME, organism-based; conditions: in vivo
[9] = Oral bioavailability in Sprague-Dawley rat at 10 mg/kg by LC-MS/MS method; type: ADME, organism-based; conditions: in vivo
Rattus norvegicus [10] = experiment: In vivo inhibition of PHD2 in Sprague-Dawley rat assessed as EPO levels in serum at 40 mg/kg, po after 8 hrs by ELISA; type: functional
[11] = Tmax in beagle dog at 5 mg/kg, po by LC-MS/MS method; type: ADME, organism-based, Canis lupus familiaris; conditions: in vivo
[12] = Cmax in beagle dog at 5 mg/kg, po by LC-MS/MS method; type: ADME, organism-based, Canis lupus familiaris; parameters: dose 5 mg/kg, route oral; conditions: in vivo
[13] = Half life in Sprague-Dawley rat at 1 mg/kg, iv by LC-MS/MS method; type: ADME, organism-based; conditions: in vivo
[14] = Volume of distribution at steady state in beagle dog at 1 mg/kg, iv by LC-MS/MS method; type: ADME, organism-based, Canis lupus familiaris; conditions: in vivo, read-out: Vdss
[15] = Cmax in Sprague-Dawley rat at 10 mg/kg, po by LC-MS/MS method; type: ADME, organism-based; parameters: dose 10 mg/kg, route oral; conditions: in vivo
[16] = Half life in beagle dog at 5 mg/kg, po by LC-MS/MS method; type: ADME, organism-based, Canis lupus familiaris; conditions: in vivo
[17] = Volume of distribution at steady state in Sprague-Dawley rat at 1 mg/kg, iv by LC-MS/MS method; type: ADME, organism-based; conditions: in vivo, read-out: Vdss
Egl nine homolog 1 = Egl nine homolog 1 (Rattus norvegicus, UniProt P59722); experiment: Inhibition of rat PHD2 using FITC-HIF1-alpha as substrate after 10 mins in presence of 2-oxoglutarate by fluorescence polarization assay
Sequence of Egl nine homolog 1 (P59722 whole entry): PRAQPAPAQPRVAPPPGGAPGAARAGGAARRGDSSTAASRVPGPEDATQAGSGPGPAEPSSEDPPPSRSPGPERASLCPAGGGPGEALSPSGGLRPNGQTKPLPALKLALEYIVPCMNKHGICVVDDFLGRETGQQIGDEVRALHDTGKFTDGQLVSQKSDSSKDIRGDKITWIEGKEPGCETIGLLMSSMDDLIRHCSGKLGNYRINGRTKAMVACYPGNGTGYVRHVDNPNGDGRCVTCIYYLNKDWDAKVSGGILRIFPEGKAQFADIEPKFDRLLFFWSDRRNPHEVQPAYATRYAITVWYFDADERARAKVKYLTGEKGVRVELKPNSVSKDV

[18] = Total clearance in Sprague-Dawley rat at 1 mg/kg, iv by LC-MS/MS method; type: ADME, organism-based; conditions: in vivo
[19] = Oral bioavailability in beagle dog at 5 mg/kg by LC-MS/MS method; type: ADME, organism-based, Canis lupus familiaris; conditions: in vivo
[20] = Half life in Sprague-Dawley rat at 10 mg/kg, po by LC-MS/MS method; type: ADME, organism-based; conditions: in vivo
[21] = Half life in beagle dog at 1 mg/kg, iv by LC-MS/MS method; type: ADME, organism-based, Canis lupus familiaris; conditions: in vivo
[22] = Protein binding in beagle dog plasma at 0.3 ug/ml after 8 hrs by equilibrium dialysis method; type: ADME, cell-free, Canis lupus familiaris; conditions: read-out: PPB (converted)
[23] = Protein binding in human plasma at 0.3 ug/ml after 8 hrs by equilibrium dialysis method; type: ADME, cell-free; conditions: read-out: PPB (converted)
[24] = Protein binding in Sprague-Dawley rat plasma at 0.3 ug/ml after 8 hrs by equilibrium dialysis method; type: ADME, cell-free; conditions: read-out: PPB (converted)
[25] = Drug metabolism in beagle dog hepatocytes assessed as oxidative metabolism at 1 uM after 4 hrs by LC-MS/MS method; type: ADME, cell-based, Canis lupus familiaris, Hepatocyte; conditions: read-out: Drug metabolism
[26] = Drug metabolism in human hepatocytes assessed as oxidative metabolism at 1 uM after 4 hrs by LC-MS/MS method; type: ADME, cell-based, Hepatocyte; conditions: read-out: Drug metabolism
[27] = Drug metabolism in Sprague-Dawley rat hepatocytes assessed as oxidative metabolism at 1 uM after 4 hrs by LC-MS/MS method; type: ADME, cell-based, Hepatocyte; conditions: read-out: Drug metabolism
Rattus norvegicus [28] = experiment: In vivo inhibition of PHD2 in Sprague-Dawley rat assessed as increase in EPO levels in serum at 100 mg/kg, po after 6 hrs by ELISA; type: functional, organism-based
Mus musculus [29] = experiment: In vivo inhibition of PHD2 in Balb/c mouse assessed as EPO levels in serum at 100 mg/kg, po after 6 hrs by ELISA; type: functional
Homo sapiens = experiment: Terminal half life in patient with hepatic impairment at 100 mg, po; type: ADME, organism-based; conditions: in vivo

Work on O=C(O)CNC(=O)C1=C(O)CCN(Cc2ccc(OC(F)(F)F)cc2)C1=O yielded a half-life [1] of 2.8 h.
Molecule CC1CN(Cc2ccc(-c3ccccc3)cc2)C(=O)C(C(=O)NCC(=O)O)=C1O (centres undefined) has a metabolised at 1 h, 1 µM [2] of 6%, a fraction unbound at 4 h, 1 ug/ml [3] of less than 0.005 and a fraction unbound at 4 h, 1 ug/ml [4] of less than 0.005.
For O=C(O)CNC(=O)C1C(=O)N(C2CCCCC2)C(=O)N(C2CCCCC2)C1=O [DAPRODUSTAT], the half-life [5] was 2.7 h.
With O=C(O)CNC(=O)C1=C(O)CCN(Cc2ccc(-c3ccccc3)cc2)C1=O the metabolised at 1 h, 1 µM [2] was 34.4%, the fraction unbound at 4 h, 1 ug/ml [3] was 0.011 and the fraction unbound at 4 h, 1 ug/ml [4] was 0.007.
For Cc1ccc(Oc2ccc(CN3CCC(O)=C(C(=O)NCC(=O)[O-])C3=O)nc2)cc1.[Na+], the “serum EPO level” value (Mus musculus [6]) was 1488 pg/mL.
In the case of Cc1ccc(Oc2ccc(CN3CCC(O)=C(C(=O)NCC(=O)O)C3=O)cn2)cc1, the half-life [1] is reported as 0.72 h and the “serum EPO level” value (Mus musculus [6]) is reported as 3497 pg/mL.
With O=C([O-])CNC(=O)C1=C(O)CCN(Cc2ccc(OCCC3CC3)nc2)C1=O.[Na+] the half-life [1] was 0.42 h and the “serum EPO level” value (Mus musculus [6]) was 7530 pg/mL.
O=C(O)CNC(=O)C1=C(O)CCN(Cc2ccc(Oc3ccc(Cl)cc3)nc2)C1=O gave a clearance [7] of 3.28 mL/min/kg, a Tmax [8] of 0.25 h and a bioavailability [9] of 82.8%. The half-life [1] was 1.5 h, the Activity (Rattus norvegicus [10]) was 3003 pg/mL and the Tmax [11] was 0.75 h. The Cmax [12] was 6980 ng/mL, the half-life [13] was 3.1 h and the Vd [14] was 0.231 L/kg. The Cmax [15] was 10700 ng/mL, the half-life [16] was 3.5 h and the Vd [17] was 0.904 L/kg. It also gave an IC50 (Egl nine homolog 1) of 18 nM, a clearance [18] of 7.28 mL/min/kg and a bioavailability [19] of 52.8%. It also gave a half-life [20] of 2.3 h and a half-life [21] of 4.7 h.
With O=C([O-])CNC(=O)C1=C(O)CCN(Cc2ccc(Oc3ccc(Cl)cc3)nc2)C1=O.[Na+] the fraction unbound at 8 h, 0.3 ug/ml [22] was 0.011, the fraction unbound at 8 h, 0.3 ug/ml [23] was 0.009 and the “serum EPO level” value (Mus musculus [6]) was 8371 pg/mL. The fraction unbound at 8 h, 0.3 ug/ml [24] was 0.011, the metabolised at 4 h, 1 µM [25] was -0.3% and the metabolised at 4 h, 1 µM [26] was 5.7%. It also gave a metabolised at 4 h, 1 µM [27] of 0.9%.
With O=C(O)CNC(=O)C1=C(O)CCN(Cc2ccc(OCC3CC3)cc2)C1=O the half-life [1] was 1.4 h and the “serum EPO level” value (Mus musculus [6]) was 6258 pg/mL.
With O=C([O-])CNC(=O)C1=C(O)CCN(Cc2ccc(OCCC3CC3)cc2)C1=O.[Na+] the half-life [1] was 0.46 h and the “serum EPO level” value (Mus musculus [6]) was 8163 pg/mL.
With O=C([O-])CNC(=O)C1=C(O)CCN(Cc2ccc(OCCC3CC3)cn2)C1=O.[Na+] the “serum EPO level” value (Mus musculus [6]) was 471 pg/mL.
CC1CC(O)=C(C(=O)NCC(=O)O)C(=O)N1Cc1ccc(-c2ccccc2)cc1 (centres undefined) gave a metabolised at 1 h, 1 µM [2] of 3.8%, a fraction unbound at 4 h, 1 ug/ml [3] of less than 0.006 and a fraction unbound at 4 h, 1 ug/ml [4] of less than 0.006.
Molecule O=C(O)CNC(=O)C1=C(O)CCN(Cc2ccc(C(F)(F)F)cc2)C1=O has a half-life [1] of 4.9 h.
In the case of O=C(O)CNC(=O)C1=C(O)CC2(CCCCC2)N(Cc2ccc(-c3ccccc3)cc2)C1=O, the Activity (Rattus norvegicus [28]) is reported as “inactive”, the metabolised at 1 h, 1 µM [2] is reported as 31.3% and the Activity (Mus musculus [29]) is reported as 2323 pg/mL. The fraction unbound at 4 h, 1 ug/ml [3] was less than 0.006 and the fraction unbound at 4 h, 1 ug/ml [4] was less than 0.006.
O=C(O)CNC(=O)C1=C(O)CC2(CCC2)N(Cc2ccc(-c3ccccc3)cc2)C1=O gave a metabolised at 1 h, 1 µM [2] of 13%, a fraction unbound at 4 h, 1 ug/ml [3] of 0.005 and a fraction unbound at 4 h, 1 ug/ml [4] of less than 0.006.
For Cc1ccc(Oc2ccc(CN3CCC(O)=C(C(=O)NCC(=O)O)C3=O)cc2)cc1, the half-life [1] was 0.52 h and the “serum EPO level” value (Mus musculus [6]) was 4441 pg/mL.
In the case of Cc1nc(C(=O)NCC(=O)O)c(O)c2ccc(Oc3ccccc3)cc12 [ROXADUSTAT], the “beta t1/2” value (Homo sapiens) is reported as 13 h.
Work on O=C([O-])CNC(=O)C1=C(O)CCN(Cc2ccc(OC3CC3)cc2)C1=O.[Na+] yielded a half-life [1] of 0.55 h.
Work on O=C(O)CNC(=O)c1ncc(-c2cccc(Cl)c2)cc1O [VADADUSTAT] yielded a half-life [5] of 4.5 h.
